Results as given in patent US20120087980A1, “STIMULATION OF NEUROREGENERATION BY FLAVONOID GLYCOSIDES” (priority 2010, published 2012).

How the values were obtained:
[1] = system: NG108-15 neuroblastoma-glioma hybridoma cells and the ND7/23 neural cell line; assay: Incubation of neural cell lines with 15 flavonoids, neurite formation; type: cell-based; conditions: for neurite formation: screen of 15 flavonoids, NG108-15 and ND7/23 cells
Description: Cell culture. The NG108-15 neuroblastoma/glioma cells and ND7/23 rat DRG/mouse neuroblastoma cells were seeded at 10^4 cells/cm^2 on laminin coated wells and stimulated for 48 hours with 40 μM isoquercitrin (Cat No 00140585, Sigma) alone or in combination with either 10 μM Rho Kinase inhibitor Y-27632 (Cat No Y0503, Sigma) or 0.25 μg/ml Rho inhibitor Exoenzyme C3 Transferase (Cat No CT04, Cytoskeleton). Later, isoquercitrin stimulated cells were incubated with 0.2 unit/ml Rho Activator Calpeptin (Cat No CN01, Cytoskeleton) or, alternatively with 0.25 μM Phospholipase C inhibitor U73122 (Cat No 662035, Calbiochem). Live Cell Imaging. During incubation, cells were observed by time-lapse live cell imaging with Cell-IQ (Chip-Man Technologies, Ltd). Quantitative analysis of neurite length/cell was performed using Cell-IQ Analyser Software. Cell imaging by Immunofluorescence. Cells were cultured for 48 hrs on a Chamber Slide™ System (Lab-Tek™) under the above described conditions. Then, the cells were fixed and permeabilized with 4% formaldehyde/0.1% Triton X100 in PBS for 20 min at 4° C. After blocking with PBS containing 20% FBS and 5% BSA for 1 h at room temperature, they were incubated with mAb anti-synaptotagmin-1 (1:200, SY Synaptic Systems) for 1 hr at room temperature. Following three washes in PBS, cells were incubated with Alexa Fluor® 488 goat anti-mouse IgG/IgM (Invitrogen) for 30 min at room temperature. Afterwards, cells were incubated with 0.13 μg/ml phalloidin in the dark for 30 min at 4° C. Finally DAPI was added and last 30 min. Samples were rinsed three times and kept in PBS. The imaging was performed using Confocal Laser Scanning Microscope (Carl Zeiss AG). Assay for RhoA activation. […] The plate was incubated with an HRP detection reagent for 15 min at 37° C. and, after addition of an HRP stop buffer, the absorbance was immediately recorded at 490 nm. […] The purity and concentration were determined using a Nanoprop ND 1000 (Nanoprop Technologies, Delaware, USA) and a Bioanalyzer 2100 (Agilent, Waldbronn, Germany). […]

NG108 cells = assay: Microarray gene expression analysis (whole Mouse Genome 4x44k OligoMicroarrays); type: cell-based; conditions: 40 uM isoquercitrin
Description: Cell culture. The NG108-15 neuroblastoma/glioma cells and ND7/23 rat DRG/mouse neuroblastoma cells were seeded at 10^4 cells/cm^2 on laminin coated wells and stimulated for 48 hours with 40 μM isoquercitrin (Cat No 00140585, Sigma) alone or in combination with either 10 μM Rho Kinase inhibitor Y-27632 (Cat No Y0503, Sigma) or 0.25 μg/ml Rho inhibitor Exoenzyme C3 Transferase (Cat No CT04, Cytoskeleton). Later, isoquercitrin stimulated cells were incubated with 0.2 unit/ml Rho Activator Calpeptin (Cat No CN01, Cytoskeleton) or, alternatively with 0.25 μM Phospholipase C inhibitor U73122 (Cat No 662035, Calbiochem). Live Cell Imaging. During incubation, cells were observed by time-lapse live cell imaging with Cell-IQ (Chip-Man Technologies, Ltd). Quantitative analysis of neurite length/cell was performed using Cell-IQ Analyser Software. Cell imaging by Immunofluorescence. Cells were cultured for 48 hrs on a Chamber Slide™ System (Lab-Tek™) under the above described conditions. Then, the cells were fixed and permeabilized with 4% formaldehyde/0.1% Triton X100 in PBS for 20 min at 4° C. After blocking with PBS containing 20% FBS and 5% BSA for 1 h at room temperature, they were incubated with mAb anti-synaptotagmin-1 (1:200, SY Synaptic Systems) for 1 hr at room temperature. Following three washes in PBS, cells were incubated with Alexa Fluor® 488 goat anti-mouse IgG/IgM (Invitrogen) for 30 min at room temperature. Afterwards, cells were incubated with 0.13 μg/ml phalloidin in the dark for 30 min at 4° C. Finally DAPI was added and last 30 min. Samples were rinsed three times and kept in PBS. The imaging was performed using Confocal Laser Scanning Microscope (Carl Zeiss AG). Assay for RhoA activation. For RhoA activation assay, the procedure followed the manufacture's instruction regarding RhoA G-LISA™ Activation Assay (Cytoskeleton). Briefly, grown cells were homogenized in a lysis buffer and were centrifuged at 14,000 rpm for 2 min. The supernatants, containing equal amount of proteins (60 μg/30 μl), were transferred into a 96 well plate and equal volumes of ice-cold binding buffer were added into each well. The plate was incubated for 30 min under shaking (400 rpm) at 4° C. Then they were incubated with diluted anti-RhoA primary antibodies followed by secondary antibodies while shaking (400 rpm) at room temperature for 45 min each. The plate was incubated with an HRP detection reagent for 15 min at 37° C. and, after addition of an HRP stop buffer, the absorbance was immediately recorded at 490 nm. Microarray and RT-PCR. Total cellular RNA was isolated using the RNAeasy spin columns with the DNAse digestion step. The purity and concentration were determined using a Nanoprop ND 1000 (Nanoprop Technologies, Delaware, USA) and a Bioanalyzer 2100 (Agilent, Waldbronn, Germany). All samples had 260/280 nm ratio above 1.8 and a 28S/18S ratio within 1.5-2. RNA (600 ng) was reverse transcribed into double-stranded complementary DNA (ds-cDNA) in the presence of RNA poly-A controls, RNA Spike-In Kit, Two-Color. The ds-cDNA was in vitro transcribed in the presence of Cy3 (control) and Cy5 (flavonoid-stimulated) labelled nucleotides using a Quick Amp labelling, two-color kit (Agilent P/N 5190-0444, Waldbronn, Germany). Transcription products (1.65 μg) were blocked, fragmented and hybridized to whole Mouse Genome 4×44k OligoMicroarrays (Agilent G4122F) for 17 h at 65° C. Arrays were then washed according to the manufacturer instructions and an Agilent Microarray Scanner used to measure the fluorescent intensity emitted by the labeled target. Total RNA was also reverse transcribed using oligo-dT primer and Superscript III enzyme (Invitrogen). […]

[2] = system: PC3 human prostatic cancer cells, NIH 3T3 fibroblasts, and podocytes; conditions: PC3, NIH 3T3 fibroblasts, references [6-8]; cited from earlier work
RhoA = RhoA G-LISA Activation Assay; type: cell-based; conditions: RhoA Activator for 40 min after 48 hr isoquercitrin incubation (control)
Description: FIG. 6 illustrates RhoA activation. […] RhoA activity is depressed following administration of isoquercitrin for 48 hrs.
Cell culture. The NG108-15 neuroblastoma/glioma cells and ND7/23 rat DRG/mouse neuroblastoma cells were seeded at 10^4 cells/cm^2 on laminin coated wells and stimulated for 48 hours with 40 μM isoquercitrin (Cat No 00140585, Sigma) alone or in combination with either 10 μM Rho Kinase inhibitor Y-27632 (Cat No Y0503, Sigma) or 0.25 μg/ml Rho inhibitor Exoenzyme C3 Transferase (Cat No CT04, Cytoskeleton). Later, isoquercitrin stimulated cells were incubated with 0.2 unit/ml Rho Activator Calpeptin (Cat No CN01, Cytoskeleton) or, alternatively with 0.25 μM Phospholipase C inhibitor U73122 (Cat No 662035, Calbiochem). Live Cell Imaging. During incubation, cells were observed by time-lapse live cell imaging with Cell-IQ (Chip-Man Technologies, Ltd). Quantitative analysis of neurite length/cell was performed using Cell-IQ Analyser Software. Cell imaging by Immunofluorescence. […] The plate was incubated with an HRP detection reagent for 15 min at 37° C. and, after addition of an HRP stop buffer, the absorbance was immediately recorded at 490 nm. […] The purity and concentration were determined using a Nanoprop ND 1000 (Nanoprop Technologies, Delaware, USA) and a Bioanalyzer 2100 (Agilent, Waldbronn, Germany). […]

PC 12 cells = conditions: via the ERK pathway, reference [1]; cited from earlier work

In the case of O=c1c(O[C@@H]2O[C@H](CO)[C@@H](O)[C@H](O)[C@H]2O)c(-c2ccc(O)c(O)c2)oc2cc(O)cc(O)c12 [isoquercitrin, quercetin-3-β-D-glycoside], the “persistence of neurite networks” value ([1]; in comparison to the other substances tested) was “up to 4 days of culture”, the “Fold-change, GABA A receptor-associated protein-like 1 Gene” value (NG108 cells) was 2.361 and the “Fold-change, calcium and integrin binding 1 (calmyrin) Gene” value (NG108 cells) was 1.297. For the same molecule, the “Fold-change, cholinergic receptor, nicotinic, alpha polypeptide 10 Gene” value (NG108 cells) was 1.438, the “Fold-change, cortactin binding protein 2 Gene” value (NG108 cells) was 1.518 and the “Fold-change, dopamine receptor 4 Gene” value (NG108 cells) was 1.248. For the same molecule, the “Fold-change, glutamate receptor, ionotropic, N-methyl D-aspartate-associated protein 1 Gene” value (NG108 cells) was 1.595, the “Fold-change, neural proliferation, differentiation and control gene 1 Gene” value (NG108 cells) was 1.385 and the “Fold-change, neuroligin 2 Gene” value (NG108 cells) was 1.266. For the same molecule, the “Fold-change, neurotrophin 5 Gene” value (NG108 cells) was 1.325, the “Fold-change, protein kinase C and casein kinase substrate in neurons 1 Gene” value (NG108 cells) was 1.398 and the “Fold-change, reticulon 3 Gene” value (NG108 cells) was 1.316. The “Fold-change, synapsin I Gene” value (NG108 cells) was 1.287, the “Fold-change, synapsin II Gene” value (NG108 cells) was 1.518 and the “Fold-change, synaptogyrin 1 Gene” value (NG108 cells) was 2.130. The “Fold-change, synaptopodin 2-like Gene” value (NG108 cells) was 1.393, the “Fold-change, synaptotagmin I Gene” value (NG108 cells) was 1.934 and the “Fold-change, synaptotagmin IV Gene” value (NG108 cells) was 1.825. The “Fold-change, synaptotagmin XI Gene” value (NG108 cells) was 1.913.

For C[C@@H](N)[C@H]1CC[C@H](C(=O)Nc2ccncc2)CC1 [Y-27632], the “cell morphology on ROCK inhibition” value [2] is listed as “elongated morphology”.

With CCCC[C@@H](C=O)NC(=O)[C@H](CC(C)C)NC(=O)OCc1ccccc1 [RhoA Activator] the “RhoA activation (G-LISA) after RhoA Activator” value (RhoA) was “increases RhoA activation”.

In the case of O=c1c(O)c(-c2ccc(O)cc2)oc2cc(O)cc(O)c12 [kaempferol], the neurite formation [1] was “significant neurites”.

In the case of O=c1c(O)c(-c2ccc(O)c(O)c2)oc2cc(O)ccc12 [fisetin], the “neurite outgrowth in PC 12 cells” value (PC 12 cells) is given as “induce neurite outgrowth” and the neurite formation [1] is given as “significant neurites”.
